Data from patent US20120087914A1, “INHIBITION OF TRIM62 ACTIVITY REDUCES CANCER CELL PROLIFERATION” (Fred Hutchinson Cancer Research Center, priority 2008, published 2012).

How the values were obtained:
Assay type in all cases: cell-based, human
[1] = system: MCF10A cells; assay: EdU incorporation by flow cytometry in MCF10A cells; settings: 15 nM siRNA, 48 hours posttransfection, 1.5 hours EdU, control SiRNA 29.5%
Method: (§1) 4×10^5 MCF10A cells (immortalized, non-transformed epithelial cells derived from human fibrocystic mammary tissue; ATCC CRL-10217) or BT474 cells (Her2^+ human breast cancer cell line) were seeded in growth media (DMEM/F12 (Gibco), 5% horse serum (Invitrogen), […] (Peprotech), 1 mg/ml hydrocortisone (Sigma), […] cholera toxin (Sigma), […] (Sigma), and Pen/Strep (Invitrogen)). After 24 hours, media was changed to antibiotic-free growth medium, and lipofectamine 2000 was used to cotransfect MCF10A cells with either 15 nM Trim62SiRNA (SEQ ID NO: 9; 5′ AAGAAGCAGAGAAGCGCGC-3″ (Integrated DNA Technologies)) and 15 nM siGlow (non-targeting control siRNA labeled with Cy3 (Thermo Scientific)), or 15 nM Trim62scrambled siRNA (SEQ ID NO:10; 5′ GCGAGGACGGACAAA CAGA 3′ (Sigma)) and 15 nM siGlow; for BT474 cells 25 nM siRNA was used. 6 hours post transfection, media was replaced with growth media containing antibiotics, and 48 hours postransfection, MCF10A cell were incubated for 1.5 hours with […] (5-ethynyl-2′-deoxyuridine, an analog of BrdU); for BT474 cells incubation with EdU was for 12 hours. Cells were trypsinized, washed with PBS-1% FBS, and sorted for Cy3 transfection marker using a cell sorter (BD FACSArisII cell sorter). […] The data was collected using a BD FACS Diva software package and analyzed using BD CellQuest Pro Software. […]

[2] = system: BT474 cells; assay: EdU incorporation by flow cytometry in BT474 cells; settings: 25 nM siRNA, 12 hours EdU, Control siRNA 17.5%
Method: as §1

[3] = system: MCA10F cells; assay: Cell cycle distribution of exponentially growing MCA10F cells (FIG. 9); settings: sorted on siGLO-FITC
Method: FIG. 9 provides an assessment of TRIM62siRNA on the cell cycle of MCA10F exponentially growing cells. The cells were sorted on siGLO-FITC.
as §1, with “hours.” for “hours. Cells were trypsinized, washed with PBS-1% FBS, and sorted for Cy3 transfection marker using a cell sorter (BD FACSArisII cell sorter).”

[4] = system: p27^Kip1 protein levels in UACC893 cells; assay: p27^Kip1 Western blot in UACC893 cells with lapatinib and/or TRIM62 siRNA; settings: UACC893 cells (amplified ErbB2), 0.5 μM lapatinib, siRNA from expression vector, FIG. 7
Method: A breast cancer cell line with an amplified ErbB2 gene (UACC893) was transfected with a TRIM62 siRNA expression vector or a vector that expressed a control siRNA. p27^Kip1 levels were assayed by Western blotting using a p27^Kip1 specific antibody. After treatment of the control-transfected cells with 0.5 μM lapatinib, p27^Kip1 levels increased as compared to the untreated cells. Cells transfected with the TRIM62 siRNA also had increased p27^Kip1 levels.
p27^Kip1 protein levels were measured in breast cancer cells with ErbB2 gene amplification after administration of an ErbB2 specific mall organic molecule, lapatinib. p27^Kip1 expression levels were higher after lapatinib was administered. […] The increased levels of p27^Kip1 expression coincided with increased nuclear localization of p27^Kip1. Data not shown.

[5] = system: p27^Kip1 protein levels in UACC893 cells transfected with a TRIM62 expression vector; assay: p27^Kip1 Western blot in UACC893 cells overexpressing TRIM62, treated with lapatinib; settings: UACC893 cells overexpressing TRIM62, 0.5 μM lapatinib, FIG. 8
Method: A breast cancer cell line with an amplified ErbB2 gene (UACC893) was transfected with a TRIM62 expression vector or an empty vector. p27^Kip1 levels were assayed by Western blotting using a p27^Kip1 specific antibody. Cells were treated with 0.5 μM lapatinib or buffer.
The effect of overexpression of TRIM62 protein on p27^Kip1 expression was determined in breast cancer cells with ErbB2 gene amplification. […] A breast cancer cell line with an amplified ErbB2 gene (UACC893) was transfected with a TRIM62 expression vector or an empty vector. p27^Kip1 levels were assayed by Western blotting using a p27^Kip1 specific antibody. Cells were treated with 0.5 μM lapatinib or buffer. As compared to an empty vector control, cells that overexpressed TRIM62 had low levels of p27^Kip1 protein expression.

Compound	EdU^+ cells [1]	EdU^+ cells [2]	percentage of cells that remain in G1 [3]	p27^Kip1 protein expression levels [4]	expression of p27^Kip1 protein [5]
5′ AAGAAGCAGAGAAGCGCGC-3″ [T62siRNA]	11.1%	9%	higher percentage		
CS(=O)(=O)CCNCc1ccc(-c2ccc3ncnc(Nc4ccc(OCc5cccc(F)c5)c(Cl)c4)c3c2)o1 [lapatinib]				higher	did not result in increased expression
